Test results taken from the supplement of paper PMC10307832.

Experiments:
Assay in all cases: relative viability (nuclei count vs DMSO), 5 days (fraction); higher = more cells survive
[1] = compound: O=C(Nc1cc(C(F)(F)F)cc(C(F)(F)F)c1)c1cc(Cl)ccc1O [IMD-0354] + Cc1cc(Nc2cc(N3CCN(C)CC3)nc(Sc3ccc(NC(=O)C4CC4)cc3)n2)n[nH]1 [Tozasertib] (partner 0.1 µM)
Outline: (§1)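 Each reported value is a median over duplicate plates. It expresses relative viability: treated-well nuclei count divided by vehicle-well nuclei count. Lung cancer cell lines in 1536-well plates were dosed by pin tool a day after seeding, alone with one drug or with a fixed anchor-drug dose plus five library-drug doses (not always all listed) in √10 steps, and nuclei were counted after 5 days.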

[2] = compound: O=C(Nc1cc(C(F)(F)F)cc(C(F)(F)F)c1)c1cc(Cl)ccc1O [IMD-0354] + Nc1ncn([C@H]2C[C@H](O)[C@@H](CO)O2)c(=O)n1 [Decitabine] (partner 2 µM)
Outline: as §1

[3] = compound: Cc1cnc(CNC(=O)c2c(=O)c3ccc(N4CCCN(C)CC4)nc3n3c2sc2ccccc23)cn1 [CX-5461] + O=C(c1cc(Cc2n[nH]c(=O)c3ccccc23)ccc1F)N1CCN(C(=O)C2CC2)CC1 [Olaparib] (partner 8 µM)
Outline: as §1

[4] = compound: Cc1cnc(CNC(=O)c2c(=O)c3ccc(N4CCCN(C)CC4)nc3n3c2sc2ccccc23)cn1 [CX-5461] + CS(=O)(=O)CCNCc1ccc(-c2ccc3ncnc(Nc4ccc(OCc5cccc(F)c5)c(Cl)c4)c3c2)o1 [Lapatinib] (partner 2 µM)
Outline: as §1

| Cell Line | relative viability ([1]; first compound 0.04 µM) | relative viability ([1]; first compound 0.1265 µM) | relative viability ([1]; first compound 0.4 µM) | relative viability ([1]; first compound 1.265 µM) | relative viability ([1]; first compound 4 µM) | relative viability ([2]; first compound 0.04 µM) | relative viability ([2]; first compound 0.1265 µM) | relative viability ([2]; first compound 0.4 µM) | relative viability ([2]; first compound 1.265 µM) | relative viability ([2]; first compound 4 µM) | relative viability ([3]; first compound 0.01 µM) | relative viability ([3]; first compound 0.03162 µM) | relative viability ([3]; first compound 0.1 µM) | relative viability ([3]; first compound 0.3162 µM) | relative viability ([3]; first compound 1 µM) | relative viability ([4]; first compound 0.01 µM) | relative viability ([4]; first compound 0.03162 µM) | relative viability ([4]; first compound 0.1 µM) | relative viability ([4]; first compound 0.3162 µM) | relative viability ([4]; first compound 1 µM) |
| --- | --- | --- | --- | --- | --- | --- | --- | --- | --- | --- | --- | --- | --- | --- | --- | --- | --- | --- | --- | --- |
| NCI-H441 | 0.79 | 0.667 | 0.397 | 0.295 | 0.24 | 0.223 | 0.256 | 0.247 | 0.131 | 0.146 | 0.553 | 0.664 | 0.478 | 0.588 | 0.448 | – | – | – | – | – |
| NCI-H522 | 0.58 | 0.513 | 0.5 | 0.576 | 0.404 | 0.748 | 0.659 | 0.615 | 0.57 | 0.428 | 0.647 | 0.645 | 0.664 | – | 0.664 | – | – | – | – | – |
| NCI-H1299 | – | – | – | – | – | – | – | – | – | – | 0.979 | 0.982 | 0.973 | 1 | 0.891 | 0.945 | 0.975 | 1 | 0.982 | 0.866 |
| NCI-H1563 | – | – | – | – | – | – | – | – | – | – | – | – | – | – | – | 0.889 | 0.852 | 0.661 | 0.683 | 0.477 |
| NCI-H1623 | 0.484 | 0.444 | 0.398 | 0.342 | 0.277 | – | – | – | – | – | – | – | – | – | – | – | – | – | – | – |
| NCI-H1648 | – | 0.454 | 0.498 | 0.424 | 0.269 | 0.526 | 0.475 | 0.401 | 0.374 | 0.272 | 1.19 | 0.765 | 0.76 | 0.762 | 1.05 | – | – | – | – | – |
| NCI-H1703 | – | – | – | – | – | – | – | – | – | – | 0.535 | 0.531 | 0.334 | 0.538 | 0.422 | 1.2 | 1.45 | 1.1 | 1.14 | 0.502 |
| NCI-H1792 | – | – | – | – | – | 0.675 | 0.38 | 0.387 | 0.358 | 0.174 | 0.424 | 0.471 | 0.477 | 0.371 | 0.39 | 0.919 | 1.08 | 0.923 | 0.85 | 0.788 |
| NCI-H2228 | 0.181 | 0.256 | 0.275 | 0.185 | 0.175 | – | – | – | – | – | 0.75 | 0.773 | 0.518 | 0.55 | 0.188 | 1.13 | 0.764 | 0.473 | 0.668 | 0.166 |
| NCI-H2342 | 0.497 | 0.534 | 0.471 | 0.401 | 0.377 | 0.728 | 0.707 | 0.601 | 0.656 | 0.5 | 0.488 | 0.398 | 0.44 | 0.391 | 0.447 | – | – | – | – | – |
| SW 900 | 0.635 | 0.531 | 0.409 | 0.273 | 0.225 | 0.432 | 0.414 | 0.397 | 0.208 | 0.213 | 0.785 | 0.872 | – | 0.923 | 1 | – | – | – | – | – |
